Data from patent US20240217951A1, “PCSK9 INHIBITORS AND METHODS OF USE THEREOF” (AstraZeneca AB, priority 2022, published 2024).

Tests used:
[1] = biological target: GSK3β (Glycogen synthase kinase-3 beta) (Homo sapiens, UniProt P49841); assay: Assay 6 - GSK3β assay (ThermoFisher Z-Lyte); format: biochemical; settings: geometric mean; ATP Conc: 10 μM; read-out: Assay 6 (GSK3β FRET-Z-Lyte CR) GMean IC50 (μM) ATP Conc: 10
Procedure, shortened: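 Z-Lyte fluorescence kinase assay with 0.22-0.92 ng GSK3β and 2 μM Ser/Thr 09 peptide in 50 mM HEPES pH 7.5, 10 mM MgCl2, 1 mM EGTA, 0.01% BRIJ-35. Kinase reaction 60 min at room temperature, then 60 min development. 10-point 3-fold titration from 10 μM in 1% DMSO, fitted to a sigmoidal dose-response curve.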

PCSK9 = PCSK9 (Homo sapiens, UniProt Q8NBP7, G670E/V474I); assay: Assay 3 - PCSK9 LDL-C uptake assay in HepG2 cells; format: cell-based; design: TEV cleavage site (C); His6 (C); host or cells: added to HepG2 cells (ATCC #HB-8065); settings: 125 nM PCSK9, pHrodo Red-LDL, read-out: Assay 3 LDL uptake potency
Procedure, shortened: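 HepG2 cells seeded 24 h, then given compound (half-log series, top 10 μM) plus PCSK9 at 125 nM final for 24 h at 37 °C. pHrodo Red-LDL (6 μg/mL) added; uptake imaged at 4 h and 24 h. Signal normalized between DMSO and 100 nM evolocumab controls, four-parameter logistic fit.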

Chain of GSK3β (Glycogen synthase kinase-3 beta) (P49841 whole entry): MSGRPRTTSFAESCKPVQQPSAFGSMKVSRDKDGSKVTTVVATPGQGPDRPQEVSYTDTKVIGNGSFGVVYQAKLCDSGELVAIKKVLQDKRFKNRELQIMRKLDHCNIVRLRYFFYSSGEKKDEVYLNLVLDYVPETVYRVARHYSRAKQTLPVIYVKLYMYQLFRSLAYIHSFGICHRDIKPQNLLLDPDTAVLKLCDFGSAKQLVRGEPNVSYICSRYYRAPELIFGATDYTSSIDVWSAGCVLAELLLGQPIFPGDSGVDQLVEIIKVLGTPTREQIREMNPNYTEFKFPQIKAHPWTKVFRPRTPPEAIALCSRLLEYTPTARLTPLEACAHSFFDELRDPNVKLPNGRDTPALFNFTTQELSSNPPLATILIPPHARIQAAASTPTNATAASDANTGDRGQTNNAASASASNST
Chain of PCSK9 (Q8NBP7 with tags, fused parts or gaps V474I/G670E): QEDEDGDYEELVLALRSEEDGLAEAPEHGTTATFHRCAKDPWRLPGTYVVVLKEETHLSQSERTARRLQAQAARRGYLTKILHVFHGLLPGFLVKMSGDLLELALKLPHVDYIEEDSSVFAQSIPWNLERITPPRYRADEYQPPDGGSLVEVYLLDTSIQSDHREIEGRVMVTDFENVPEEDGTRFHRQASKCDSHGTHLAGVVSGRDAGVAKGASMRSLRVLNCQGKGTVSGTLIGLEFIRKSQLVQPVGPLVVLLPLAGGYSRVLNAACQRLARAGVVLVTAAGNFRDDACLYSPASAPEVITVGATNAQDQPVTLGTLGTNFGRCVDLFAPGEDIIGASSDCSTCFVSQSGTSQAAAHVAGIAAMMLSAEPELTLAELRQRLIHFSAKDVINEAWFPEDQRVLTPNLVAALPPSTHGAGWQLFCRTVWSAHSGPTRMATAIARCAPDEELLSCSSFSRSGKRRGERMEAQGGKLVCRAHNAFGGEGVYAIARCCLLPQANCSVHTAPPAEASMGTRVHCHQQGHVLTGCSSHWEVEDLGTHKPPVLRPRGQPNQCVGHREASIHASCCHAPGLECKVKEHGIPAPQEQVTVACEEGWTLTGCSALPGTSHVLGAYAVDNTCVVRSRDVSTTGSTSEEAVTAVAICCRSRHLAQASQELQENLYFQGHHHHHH

Structure (SMILES) | IC50 [1] | EC50 (PCSK9)
O=c1ccc(-c2ccc(F)cc2)cn1-c1ccc(N[C@H]2CC[C@H](Nc3cnc(Cl)cn3)C2)nc1 [Example 32, 6′-(((1S,3S)-3-((5-Chloropyrazin-2-yl)amino)cyclopentyl)amino)-5-(4-fluorophenyl)-2H-[1,3′-bipyridin]-2-one] | > 10 µM | 200 nM
Cn1c(=O)n(-c2ccc(N[C@H]3CC[C@H](Nc4cnc(OC(F)F)cn4)C3)nc2)c2ccccc21 [Example 82, 1-(6-(((1S,3S)-3-((5-(Difluoromethoxy)pyrazin-2-yl)amino)cyclopentyl)amino)pyridin-3-yl)-3-methyl-1,3-dihydro-2H-benzo[d]imidazol-2-one] | > 10 µM | 200 nM
COc1cccn(-c2ccc(N[C@H]3CC[C@H](Nc4cnc(C)cn4)C3)nc2)c1=O [Example 36, 3-Methoxy-6′-(((1S,3S)-3-((5-methylpyrazin-2-yl)amino)cyclopentyl)amino)-2H-[1,3′-bipyridin]-2-one] | > 10 µM | 100 nM
Cn1c(=O)n(-c2ccc(N[C@H]3CC[C@H](Nc4cnc(Cl)cn4)C3)nc2)c2ccccc21 [Example 27, 1-(6-(((1S,3S)-3-((5-Chloropyrazin-2-yl)amino)cyclopentyl)amino)pyridin-3-yl)-3-methyl-1,3-dihydro-2H-benzo[d]imidazol-2-one] | > 10 µM | 100 nM
Cc1cnc(N[C@H]2CC[C@H](Nc3ccc(-n4cccc(C#N)c4=O)cn3)C2)cn1 [Example 103, 6′-(((1S,3S)-3-((5-Methylpyrazin-2-yl)amino)cyclopentyl)amino)-2-oxo-2H-[1,3′-bipyridine]-3-carbonitrile] | > 10 µM | 200 nM
Cc1cccn(-c2ccc(N[C@H]3CC[C@H](Nc4cnc(Cl)cn4)C3)nc2)c1=O [Example 24, 6′-(((1S,3S)-3-((5-Chloropyrazin-2-yl)amino)cyclopentyl)amino)-3-methyl-2H-[1,3′-bipyridin]-2-one] | > 10 µM | 400 nM
Cc1cnc(N[C@H]2CC[C@H](Nc3ccc(-n4cccc(Cl)c4=O)cn3)C2)cn1 [Example 47, 3-Chloro-6′-(((1S,3S)-3-((5-methylpyrazin-2-yl)amino)cyclopentyl)amino)-2H-[1,3′-bipyridin]-2-one] | > 10 µM | 100 nM
COc1cccn(-c2ccc(N[C@H]3CC[C@H](Nc4cnc(C5CC5)cn4)C3)nc2)c1=O [Example 106, 6′-(((1S,3S)-3-((5-Cyclopropylpyrazin-2-yl)amino)cyclopentyl)amino)-3-methoxy-2H-[1,3′-bipyridin]-2-one] | > 10 µM | 200 nM
O=c1ccc2ccccc2n1-c1ccc(N[C@H]2CC[C@H](Nc3cnc(Cl)cn3)C2)nc1 [Example 35, 1-(6-(((1S,3S)-3-((5-Chloropyrazin-2-yl)amino)cyclopentyl)amino)pyridin-3-yl)quinolin-2 (1H)-one] | > 10 µM | 100 nM
Cc1cnc(N[C@H]2CC[C@H](Nc3ccc(-n4c(=O)[nH]c5ccccc54)cn3)C2)cn1 [Example 46, 1-(6-(((1S,3S)-3-((5-Methylpyrazin-2-yl)amino)cyclopentyl)amino)pyridin-3-yl)-1,3-dihydro-2H-benzo[d]imidazol-2-one] | > 10 µM | 700 nM
COc1ccnn(-c2ccc(N[C@H]3CC[C@H](Nc4cnc(C)cn4)C3)nc2)c1=O [Example 226, 4-Methoxy-2-(6-(((1S,3S)-3-((5-methylpyrazin-2-yl)amino)cyclopentyl)amino)pyridin-3-yl)pyridazin-3 (2H)-one] | > 10 µM | 200 nM
Cc1cnc(N[C@H]2CC[C@H](Nc3ccc(-n4c(=O)ccc5cccnc54)cn3)C2)cn1 [Example 37, 1-(6-(((1S,3S)-3-((5-Methylpyrazin-2-yl)amino)cyclopentyl)amino)pyridin-3-yl)-1,8-naphthyridin-2(1 H)-one] | > 10 µM | 200 nM
Cc1cnc(N[C@H]2CC[C@H](Nc3ccc(-n4c(=O)n(C)c5cccnc54)cn3)C2)cn1 [Example 42, 1-Methyl-3-(6-(((1S,3S)-3-((5-methylpyrazin-2-yl)amino)cyclopentyl)amino)pyridin-3-yl)-1,3-dihydro-2H-imidazo[4,5-b]pyridin-2-one] | > 10 µM | 200 nM
O=C(O)c1ccc(=O)n(-c2ccc(N[C@H]3CC[C@H](Nc4cnc(Cl)cn4)C3)nc2)c1 [Example 33, 6′-(((1S,3S)-3-((5-Chloropyrazin-2-yl)amino)cyclopentyl)amino)-2-oxo-2H-[1,3′-bipyridine]-5-carboxylic acid] | > 10 µM | 100 nM
Cc1cnc(N[C@H]2CC[C@H](Nc3ccc(-n4c(=O)n(C)c5ccccc54)cn3)C2)cn1 [Example 45, 1-Methyl-3-(6-(((1S,3S)-3-((5-methylpyrazin-2-yl)amino)cyclopentyl)amino)pyridin-3-yl)-1,3-dihydro-2H-benzo[d]imidazol-2-one] | > 10 µM | 200 nM
Cc1cnc(N[C@H]2CC[C@H](Nc3ccc(-n4cccc(C)c4=O)cn3)C2)cn1 [Example 44, 3-Methyl-6′-(((1S,3S)-3-((5-methylpyrazin-2-yl)amino)cyclopentyl)amino)-2H-[1,3′-bipyridin]-2-one] | > 10 µM | 300 nM
COc1cccn(-c2ccc(N[C@H]3CC[C@H](Nc4cnc(OC(F)F)cn4)C3)nc2)c1=O [Example 94, 6′-(((1S,3S)-3-((5-(Difluoromethoxy)pyrazin-2-yl)amino)cyclopentyl)amino)-3-methoxy-2H-[1,3′-bipyridin]-2-one] | > 10 µM | 300 nM
